{"source": "patent US20240024444A1", "about": "“Combined Preparation” (MEDRx Co., Ltd., priority 2020, published 2024)", "assay": "In vitro skin permeability test (Franz diffusion cell)", "assay_type": "in vitro ADME, rat (Slc: Wistar)", "description": "In this test, a Franz diffusion cell (effective diffusion area: 1.0 cm^2, PermeGear, Hellertown, US) was used, and the abdominal skin (shaved before the skin is removed) of 5-week-old male rats (Slc: Wistar) was used.\nThe abdominal skin of rats was cut to about […] (23 mm round) and set in a receptor cell filled with 8.0 mL of the receptor solution (saline of 0.1% bovine serum albumin (BSA) (purchased from FUJIFILM Wako Pure Chemical Corporation)). The receptor solution was kept at 32° C. in a circulator water bath at a constant temperature. After 2, 4, 6, 8 and 24 hours, the receptor solution (0.2 mL) was collected and each of the collected solution was used as samples. After collecting the samples, the same amount of the receptor solution was added into the receptor cell to keep the volume of the receptor solution constant. […] The HPLC condition was as follows: Column: YMC Pack Pro C18 RS 5 μm, 4.6×150 mm; YMC CO., LTD., Mobile Phase: acetonitrile/0.1% trifluoroacetic acid (23/77, v/v) at 35° C., Flow Rate: 1.0 mL/min. The wavelength of the UV detector was set to 215 nm.", "data": [{"smiles": "CCOCc1nc2c(N)nc3ccccc3c2n1CC(C)(C)O", "note": "[R848, Resiquimod]", "values": [{"measurement": "accumulative amount of the co-administered R848 for 24 hours", "setting": "R848 co-administered with WT1 peptide", "result": "about 350 μg/cm^2"}, {"measurement": "accumulative amount of the individually-administered R848 for 24 hours", "setting": "R848 individually administered", "result": "about 1500 μg/cm^2"}]}]}
